Source: US10093627B2, “Tetrahydroquinoline derivatives and their use as Epac inhibitors” (Institut National de la Sante et de la Recherche Medicale …, priority 2012, dated 2018)

Key:
[1] = tested on: Epac1-induced Rap1 activation in HEK293 cells; assay: Epac1-induced Rap1 activation, Rap1-GTP pull-down in HEK293 cells; type: cell-based; conditions: 10 min
Method: HEK293 cells were transfected with either pcDNA3 control vector or Epac1 (see FIG. 2A).
HEK293 cells were transfected with Epac1 and 24 h after transfection, cells were preincubated or not with CE3F4 for 30 min and were then treated or not with Sp-007 (10 μM) for 10 min (see FIG. 2B).
HEK293 cells overexpressing β1AR (Beta-1 adrenergic receptors) and transfected with Epac1 were pretreated or not with CE3F4 and stimulated or not with Iso (10 μM) for 10 min (see FIG. 2C).
Amounts of Rap1-GTP were determined by pull-down assays (see Material and Methods). The bar graph represents the mean±S.E.M. of 5 (FIG. 2A, 2B) or 3 (FIG. 2C) independent experiments. Results are expressed as the percentage of unstimulated control cells.
Ras and Rap1 pull-down experiments were performed using a GST fusion protein containing respectively the Ras binding domain of Raf1-RBD and the Rap1 binding domain of Ral-GDS as previously described (Métrich et al., 2008). Cells were starved for 1 h before stimulation in MEM free with penicillin-streptomycin (1%). After stimulation, cells were lysed in RIPA buffer (50 mM Tris-HCl, pH 7.5; 500 mM NaCl; 20 mM MgCl2; 0.5% deoxycholic acid; 0.1% SDS; 1% Triton X-100; 1 mM PMSF; protease and phosphatase inhibitors) and 500 μg of protein were incubated with either GST-Raf1-RBD (for Ras) or Ral-GDS (for Rap1) coupled to glutathione-Sepharose beads (Amersham Biosciences) for 1h at 4° C. Beads were then washed three times in washing buffer (50 mM Tris-HCl, pH 7.5; 150 mM NaCl, 20 mM MgCl2, 1% Triton X-100; 0.1 mM PMSF; protease and phosphatase inhibitors). Rap1-GTP or Ras samples and corresponding total lysates were separated on SDS-PAGE gels and transferred onto a polyvinylidene difluoride (PVDF) membrane (Amersham Pharmacia Biotech).

[2] = tested on: Epac1-induced H-Ras activation in HEK293 cells; assay: Epac1-induced H-Ras activation, H-Ras-GTP pull-down in HEK293 cells; type: cell-based
Method: The effects of CE3F4 to prevent Epac1-induced H-Ras activation was determined by extraction of GTP-loaded H-Ras from cell lysates with the immobilized Ras-binding domain of Raf1.
HEK293 cells (FIG. 3A) or rat neonatal cardiac myocytes (FIG. 3B) were transfected with Epac1. 24 h after transfection, cells were preincubated or not with CE3F4 for 30 min and were then treated or not with Sp-007 (10 μM) for 10 min. In FIG. 3C, HEK293 cells overexpressing β1-AR and transfected with Epac1 were pretreated or not with 20 μM of CE3F4 for 30 min and stimulated or not with Iso for 10 min. Amounts of H-Ras-GTP were determined by pull-down assays. The bar graph represents the mean±S.E.M. of 5 (FIG. 3A) or 2 (FIG. 3B, 3C) independent experiments. Results are expressed as the percentage of unstimulated control cells.
Ras and Rap1 pull-down experiments were performed using a GST fusion protein containing respectively the Ras binding domain of Raf1-RBD and the Rap1 binding domain of Ral-GDS as previously described (Métrich et al., 2008). Cells were starved for 1 h before stimulation in MEM free with penicillin-streptomycin (1%). […]

[3] = tested on: Iso-induced ANF-Luc transcriptional activation; assay: ANF-Luc transcriptional activation (Firefly luciferase assay) in rat neonatal cardiomyocytes; type: cell-based; conditions: CE3F4 20 μM, 30 min pretreatment; Iso 10 μM, 8 h; FIG. 4A
Method: (§1) ANF and NFAT promoters were fused to the Firefly luciferase gene (ANF-Luc) (NFAT-Luc) to detect ANF and NFAT by Firefly Luciferase assay (see Materiel and Methods).
(§2) Rat neonatal cardiomyocytes were cotransfected with ANF-Luc and Epac1 or empty vector pcDNA3 as control. One day after transfection, cells were pretreated or not with CE3F4 (20 μM) for 30 min and stimulated or not with Iso (10 μM) for 8 h. Cells were then assayed for Luciferase activity. B) Iso-induced NFAT-Luc Transcriptional Activation is Blocked by CE3F4: Neonatal cardiomyocytes were transfected with NFAT-Luc. One day later cells were pretreated or not with CE3F4 (20 μM) for 30 min and stimulated or not with Iso (10 μM) for 8 h. The day after, cells were assayed for Luciferase activity.
(§3) Results were normalized to control for each experiment, and were expressed as means±S.E.M of at 4 (FIG. 4A) or 5 (FIG. 4B) independent experiments performed in triplicates.
(§4) The rat ANF promoter fused to the Firefly luciferase reporter gene (ANF-Luc) by Dr K. Knowlton, Epac and Rap1 plasmid construct (Epac1^WT) by Drs J. L. Bos and J. de Gunzburg, respectively. The Firefly luciferase reporter plasmid driven by four NFAT consensus binding sites (NFAT-Luc) was purchased from Stratagene. […]
(§5) Cells were lysed, and luminescence was detected using the Luciferase Assay System (Promega) according to the manufacturer's instructions with Tecan Infinite.

[4] = tested on: Iso-induced NFAT-Luc transcriptional activation; assay: NFAT-Luc transcriptional activation (Firefly luciferase assay) in neonatal cardiomyocytes; type: cell-based, rat; conditions: CE3F4 20 μM, 30 min pretreatment; Iso 10 μM, 8 h; FIG. 4B
Method: as §1, §2, §3, §4, §5

Effect on Iso-induced ANF-Luc gene transcriptional activity [3]: significantly inhibited | Effect on Iso-induced NFAT transcriptional activity [4]: prevented
Compound: CC1CCc2c(cc(Br)c(F)c2Br)N1C=O (racemic) [CE3F4]
Effect on increase in amount of Rap1-GTP following Sp-007 treatment ([1]; CE3F4 20 μM, 30 min preincubation, Sp-007 10 μM, HEK293 transfected with Epac1, FIG. 2B): prevented the increase | Effect on Epac1-induced Rap1 activation following β1-AR stimulation by isoprenaline ([1]; Iso 10 μM, HEK293 overexpressing β1AR, transfected with Epac1, FIG. 2C): decreased | Amount of Ras-GTP induced by Iso ([2]; HEK293 overexpressing β1-AR, transfected with Epac1, CE3F4 20 μM, 30 min, Iso 10 min, FIG. 3C): decreased | Amount of Ras-GTP induced by Sp-007 ([2]; HEK293 transfected with Epac1, CE3F4 30 min, Sp-007 10 μM, 10 min, FIG. 3A): decreased
